Assay [1] deals with T1, Oxytocin receptor (Homo sapiens, UniProt P30559).
T1 sequence (P30559 whole entry): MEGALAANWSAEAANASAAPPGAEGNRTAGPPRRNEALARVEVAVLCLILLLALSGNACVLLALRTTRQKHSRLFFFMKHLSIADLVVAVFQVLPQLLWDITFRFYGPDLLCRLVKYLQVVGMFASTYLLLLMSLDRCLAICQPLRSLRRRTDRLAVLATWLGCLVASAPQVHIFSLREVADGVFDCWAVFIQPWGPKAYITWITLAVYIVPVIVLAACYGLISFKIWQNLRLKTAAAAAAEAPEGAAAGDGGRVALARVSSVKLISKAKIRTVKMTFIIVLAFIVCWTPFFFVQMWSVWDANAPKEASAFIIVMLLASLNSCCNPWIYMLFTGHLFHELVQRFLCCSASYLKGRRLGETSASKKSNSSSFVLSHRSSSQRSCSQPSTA
Briefly: Antagonist activity at human OTR expressed in HEK293 cells assessed as inhibition of agonist-induced IP1 accumulation preincubated for 30 mins followed by agonist addition measured after 1 hr by HTRF assay. The class given is functional, cell-based. (In general: In TR-FRET formats the signal depends on donor and acceptor labels being close together.)

In assay [2] the target is T1, Oxytocin receptor. Briefly: Agonist activity at human OTR expressed in HEK293 cells assessed as induction of IP1 accumulation after 1 hr by HTRF assay. The class given is functional, cell-based.
Assay [3] concerns the target T2, Vasopressin V1a receptor (Homo sapiens, UniProt P37288). Nature of the assay: Displacement of [3H]-vasopressin from human vasopressin V1a receptor expressed in HEK293 cell membranes after 90 mins by radioligand binding assay.
Assay [4] has as its target T2, Vasopressin V1a receptor. Nature of the assay: Agonist activity at human vasopressin V1a receptor expressed in HEK293 cells assessed as induction of IP1 accumulation after 1 hr by HTRF assay. The assay is classed as functional, cell-based.
Assay [5] addresses T1, Oxytocin receptor. Nature of the assay: Displacement of [3H]-oxytocin from human OTR expressed in HEK293 cell membranes after 90 mins by radioligand binding assay.
For assay [6], the target named is T2, Vasopressin V1a receptor. Briefly: Antagonist activity at human vasopressin V1a receptor expressed in HEK293 cells assessed as inhibition of vasopressin-induced IP1 accumulation preincubated for 30 mins followed by vasopressin addition measured after 1 hr by HTRF assay. The class given is functional, cell-based.

T2 sequence (P37288 whole entry): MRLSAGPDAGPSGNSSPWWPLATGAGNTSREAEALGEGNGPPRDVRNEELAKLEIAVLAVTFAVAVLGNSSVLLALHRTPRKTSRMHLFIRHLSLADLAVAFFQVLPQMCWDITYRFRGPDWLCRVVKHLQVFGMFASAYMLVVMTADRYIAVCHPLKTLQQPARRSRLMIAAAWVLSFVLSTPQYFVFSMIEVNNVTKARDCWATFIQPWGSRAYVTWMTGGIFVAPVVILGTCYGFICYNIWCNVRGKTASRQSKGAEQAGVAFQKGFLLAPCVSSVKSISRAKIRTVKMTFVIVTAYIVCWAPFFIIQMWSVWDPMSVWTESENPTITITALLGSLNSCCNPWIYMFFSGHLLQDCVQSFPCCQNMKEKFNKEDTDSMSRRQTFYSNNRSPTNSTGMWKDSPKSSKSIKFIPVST

The term IC50 denotes the concentration needed to halve the response being measured. The term EC50 denotes the concentration needed to bring the measured effect to its halfway point. For orientation: Ki means a measure of affinity in units of concentration, obtained from inhibition or displacement. A high value points to lower affinity. Regarding `Cn1ncc2c1Nc1ccccc1N(C(=O)Cc1ccccc1N1CCN(Cc3cc(O)cc(O)c3)CC1)C2`, the IC50 at Oxytocin receptor [1] and at Vasopressin V1a receptor [6] was above 10 µM in each case. Besides, the EC50 at Oxytocin receptor [2] and at Vasopressin V1a receptor [4] was above 10 µM in each case. The Ki was 1.94 µM at Vasopressin V1a receptor [3] and above 10 µM at Oxytocin receptor [5].
Take `COc1cc(CN2CCN(c3cccc(CCC(=O)N4Cc5cnn(C)c5Nc5ccccc54)c3)CC2)cc(OC)c1`: the IC50 on Oxytocin receptor [1] and at Vasopressin V1a receptor [6] was above 10 µM throughout. For the same molecule, the EC50 on Oxytocin receptor [2] and at Vasopressin V1a receptor [4] was above 10 µM in each case. For the same molecule, the Ki on Vasopressin V1a receptor [3] is 3.34 µM; at Oxytocin receptor [5], above 10 µM.
Turning to `Cn1ncc2c1Nc1ccccc1N(C(=O)CCc1ccccc1N1CCN(Cc3cc(O)cc(O)c3)CC1)C2`, the IC50 at Oxytocin receptor [1] and at Vasopressin V1a receptor [6] was above 10 µM throughout. For the same molecule, the EC50 at Oxytocin receptor [2] and at Vasopressin V1a receptor [4] was above 10 µM throughout. Further, the Ki on Vasopressin V1a receptor [3] is 0.251 µM; at Oxytocin receptor [5] it was above 10 µM.
Consider `COc1cc(CN2CCN(c3ccccc3CC(=O)N3Cc4cnn(C)c4Nc4ccccc43)CC2)cc(OC)c1`, for which the IC50 on Oxytocin receptor [1] and on Vasopressin V1a receptor [6] was above 10 µM in each case. The EC50 at Oxytocin receptor [2] and at Vasopressin V1a receptor [4] was above 10 µM throughout. Also, the Ki at Vasopressin V1a receptor [3] is 6.81 µM; on Oxytocin receptor [5] it was above 10 µM.
As to `COc1cc(CN2CCN(c3ccc(CC(=O)N4Cc5cnn(C)c5Nc5ccccc54)cc3)CC2)cc(OC)c1`, the IC50 on Oxytocin receptor [1] and on Vasopressin V1a receptor [6] was above 10 µM each time. The EC50 on Oxytocin receptor [2] and on Vasopressin V1a receptor [4] was above 10 µM in each case. The figures for the Ki on Vasopressin V1a receptor [3] and on Oxytocin receptor [5] were 1.91 µM and above 10 µM, respectively.
For `COc1cc(CN2CCN(c3ccc(CCC(=O)N4Cc5cnn(C)c5Nc5ccccc54)cc3)CC2)cc(OC)c1`, the IC50 at Oxytocin receptor [1] and on Vasopressin V1a receptor [6] was above 10 µM each time. Also, the EC50 on Oxytocin receptor [2] and at Vasopressin V1a receptor [4] was above 10 µM in each case. For the same molecule, the results for the Ki on Vasopressin V1a receptor [3] and on Oxytocin receptor [5] were 6.25 µM and above 10 µM, respectively.
For the molecule `Cn1ncc2c1Nc1ccccc1N(C(=O)Cc1cccc(N3CCN(Cc4cc(O)cc(O)c4)CC3)c1)C2`, the IC50 on Oxytocin receptor [1] and at Vasopressin V1a receptor [6] was above 10 µM throughout. Besides, the EC50 on Oxytocin receptor [2] and on Vasopressin V1a receptor [4] was above 10 µM throughout. In addition, the Ki on Vasopressin V1a receptor [3] was 0.643 µM; at Oxytocin receptor [5], above 10 µM.
With `COc1cc(CN2CCN(c3ccccc3CCC(=O)N3Cc4cnn(C)c4Nc4ccccc43)CC2)cc(OC)c1`, the IC50 at Oxytocin receptor [1] and on Vasopressin V1a receptor [6] was above 10 µM each time. Besides, the EC50 on Oxytocin receptor [2] and on Vasopressin V1a receptor [4] was above 10 µM in each case. Further, the inhibition constant Ki is 1.06 µM on Vasopressin V1a receptor [3] and above 10 µM on Oxytocin receptor [5].
Take `COc1cc(CN2CCN(c3cccc(CC(=O)N4Cc5cnn(C)c5Nc5ccccc54)c3)CC2)cc(OC)c1`: the IC50 at Oxytocin receptor [1] and on Vasopressin V1a receptor [6] was above 10 µM in each case. In addition, the EC50 at Oxytocin receptor [2] and on Vasopressin V1a receptor [4] was above 10 µM in each case. The Ki is 2.1 µM on Vasopressin V1a receptor [3] and above 10 µM at Oxytocin receptor [5].
For the molecule `Cn1ncc2c1Nc1ccccc1N(C(=O)CCc1cccc(N3CCN(Cc4cc(O)cc(O)c4)CC3)c1)C2`, the half-inhibitory concentration (IC50) on Oxytocin receptor [1] and on Vasopressin V1a receptor [6] was above 10 µM throughout. In addition, the EC50 on Oxytocin receptor [2] and at Vasopressin V1a receptor [4] was above 10 µM throughout. Moreover, the figures for the Ki on Vasopressin V1a receptor [3] and at Oxytocin receptor [5] were 0.874 µM and above 10 µM, respectively.
For the molecule `Cn1ncc2c1Nc1ccccc1N(C(=O)Cc1ccc(N3CCN(Cc4cc(O)cc(O)c4)CC3)cc1)C2`, the IC50 at Oxytocin receptor [1] and at Vasopressin V1a receptor [6] was above 10 µM throughout. Also, the EC50 at Oxytocin receptor [2] and at Vasopressin V1a receptor [4] was above 10 µM throughout. Further, the Ki is 0.795 µM on Vasopressin V1a receptor [3] and above 10 µM on Oxytocin receptor [5].
`Cn1ncc2c1Nc1ccccc1N(C(=O)CCc1ccc(N3CCN(Cc4cc(O)cc(O)c4)CC3)cc1)C2`: the IC50 at Oxytocin receptor [1] and at Vasopressin V1a receptor [6] was above 10 µM each time. In addition, the EC50 at Oxytocin receptor [2] and at Vasopressin V1a receptor [4] was above 10 µM each time. Besides, the results for the Ki on Vasopressin V1a receptor [3] and on Oxytocin receptor [5] were 1.76 µM and above 10 µM, respectively.

Values taken from ChEMBL document CHEMBL4138154, “Conformationally rigid derivatives of WAY-267,464: Synthesis and pharmacology at the human oxytocin and vasopressin-1a receptors” (Eur J Med Chem, 2018).
